Results: patent US20200268005A1, “PELLETED RUMINANT FEED ENRICHED WITH RUMEN-AVAILABLE INGREDIENTS” (BASF SE, priority 2014, published 2020)

Test: CLA analysis immediately after the processing step (pelleting / extrusion)
Type: physicochemical
Description: Preparation of the meal: Corn and extracted soybean meal were weighed in together, ground and mixed in a horizontal mixer. Lutalin or Lutrell were added and mixed in. The mixing time amounted to 15 minutes. These two mixtures were divided in each case. 80 kg were pelleted and 30 kg were extruded.
Pelleting press: Manufacturer Simon Heesen, horizontal die, 3.3×35 mm, nominal capacity 300 kg/hr. Extruder: Werner & Pfleiderer 37, die 2×0 3.9 mm, nominal capacity up to 50 kg/hr. Pelleting: Pelleting temperatures of 67-68.5° C. were reached. Extrusion: An extrusion temperature of 85° C. was reached, approximately 14% of water having been added. A residual moisture of 10 to 12% has been found in the end product.

conjugated linoleic acid [CLA]
activity loss on extrusion (extrusion temperature 85° C.): approx. 40% | survival of the pelleting process (pelleting 67-68.5° C., in words): survived the pelleting process very well
